Columns and labels:
[1] = molecular target: T1, mPGES-1 (Homo sapiens, UniProt O14684); test: Cell-free mPGES-1 activity assay (PGE2 biosynthesis); assay type: biochemical; details: 10 μM, percentage of control (100%), read-out: mPGES-1 residual activity at 10 μM (%)
T1 construct: endogenous in cells; host or cells: A549 cells stimulated with IL-1β; microsomal fraction
T1 sequence (O14684 1-152): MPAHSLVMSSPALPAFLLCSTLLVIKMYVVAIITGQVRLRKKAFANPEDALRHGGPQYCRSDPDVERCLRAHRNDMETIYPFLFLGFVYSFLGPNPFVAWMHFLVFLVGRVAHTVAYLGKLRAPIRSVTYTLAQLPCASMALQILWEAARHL
From the text: (Table 1). […] From the structural point of view, the biological affinities of compounds 3 and 7 (Figure 2A and C) could be positively affected by the 2-bromobenzoyl substituent able to accommodate in a deep binding pocket on the mPGES-1 surface. This moiety interacts by van der Waals contacts with amino acids of the cytoplasmic part and establishes π-stacking with Phe44ChainC and His53ChainC hydrogen bonds with Ser127, and a halogen bond between the bromine atom and the side chain of Aps49ChainC. Furthermore, the 3-phenylphenol and 2-aminobiphenyl moieties of 3 and 7 (Figure 2A and C), respectively, are able to establish a peculiar π-stacking with Tyr130ChainA and a hydrogen bond with Gln134ChainA. […]
mM glutathione, and 250 mM sucrose) and the protein concentration was defined. Potassium phosphate buffer (0.1 M, pH = 7.4) plus glutathione (2.5 mM) was added to dilute microsomes, which were then seeded in a 96-well plate. […]
preincubated for 15 min on ice. MK886 (10 µM) and MD-52 (1 µM) were used as reference drugs.
The reactions started by adding 20 µM of PGH2, and 1 min later, 100 µl of a solution containing FeCl3 (40 mM), citric acid (80 mM), and 11β-PGE 2 (10 µM) were added for stopping the conversion of PGH2. After the extraction of PGE2 and 11β-PGE 2 (internal stardard) by solid-phase extraction, […]

[2] = tested on: zymosan-induced peritonitis; test: Zymosan-induced peritonitis in mice; assay type: in vivo, mouse; details: 3 mg/kg i.p.
Procedure: Figure 5 Effect of compound 3 in zymosan-induced peritonitis in mice. Mice were randomly divided into different experimental groups: control group (Ctrl), model group (zymosan + vehicle compound 3), zymosan + compound 3 (i.p. injection 30 min after i.p. injection of zymosan) group, and zymosan + dexamethasone (i.p. injection 30 min after i.p. injection of zymosan) group. At (A) 4 and (B) 24 h after injection, peritoneal exudate from each mouse was recovered, and the total cell number was evaluated. Results are expressed as mean ± SD. For statistical analysis see SI.
Figure 6 Analysis of cytokine levels collected in the peritoneal exudate of mice from different experimental groups: (A, B) IL-1β, (C, D) IL-6, (E, F) PGE2, and (G, H) IL-10. Results (normalized to exudate levels) are expressed as mean ± SD. For statistical analysis see SI.
Induction of peritonitis in mice and Enzyme-Linked Immunosorbent Assay (ELISA)
To examine the anti-inflammatory action of compound 3, we next evaluated the biological activity of
compound 3 in a mouse model of zymosan-induced peritonitis, as as previously described. 13,14 26, 27
To this aim, mice were randomly divided into different experimental groups: control group (Ctrl),
model group (zymosan + vehicle compound 3), zymosan + compound 3 (0.1, 1, and 10 mg/kg), and
zymosan + dexamethasone (3 mg/kg) group. Animals received the selected compound or
dexamethasone intraperitoneally (i.p.) 30 min after i.p. injection of zymosan (500 mg/kg)26, 27. Ctrl
and model groups received an equal volume of vehicle (PBS or DMSO/saline 1:3, respectively).
Peritoneal exudates were collected at selected time points (4 and 24 h) by washing the cavity with 2
mL of PBS. Then cell number of lavage fluids was determined by TC10 automated cell counter (Bio-
Rad, Milan, Italy) using disposable slides. The remaining lavage fluids were centrifuged at 3000 rpm
for 20 min at 4 °C, and supernatants were frozen at −80 °C for further ELISA analysis according to
the manufacturer instructions (eBioscience Co., San Diego, CA, USA)10 23 of IL-1β, IL-6, PGE 2 and
IL-10 following the procedure previously described15-17 28-30. Dexamethasone and zymosan A were
purchased from Sigma-Aldrich (Milan, Italy). DMSO was purchased from Merck (Italy). Unless
otherwise stated, all the other reagents were purchased from Carlo Erba (Milan, Italy).
The data and statistical analysis in this study comply with the international recommendations on
experimental design and analysis in preclinical pharmacology18-2031-33. The results obtained were
expressed as the mean ± S.D. or as mean ± S.E.M., as reported in detail in the figure legends. IC 50
values were calculated by nonlinear regression using GraphPad Prism Version 8.0 software (San
Diego, CA) one site binding competition. Statistical evaluation of the data was performed by one-

**Q.** How did the remaining activity at 10 µM [1] turn out when Nc1ccccc1-c1ccc(-c2nnc(NC(=O)c3cc(F)ccc3F)s2)cc1 [compound 8] was run?
**A.** The remaining activity at 10 µM was greater than 50%.

**Q.** How did the remaining activity at 10 µM [1] turn out when Cc1ccoc1C(=O)Nc1nnc(-c2ccc(-c3cccc(O)c3)cc2)s1 [compound 1] was run?
**A.** The remaining activity at 10 µM was greater than 50%.

**Q.** For O=C(Nc1nnc(-c2ccc(-c3cccc(O)c3)cc2)s1)c1cc(F)ccc1F [compound 4], which remaining activity at 10 µM [1] is on record?
**A.** The remaining activity at 10 µM was greater than 50%.

**Q.** How did the “IL-1β level in peritoneal exudate” value ([2]; 4 and 24 h) turn out when C[C@@H]1C[C@H]2[C@@H]3CCC4=CC(=O)C=C[C@]4(C)[C@@]3(F)[C@@H](O)C[C@]2(C)[C@@]1(O)C(=O)CO [dexamethasone, reference compound] was run?
**A.** Its value is “more prominent effect”.

**Q.** What about the “IL-6 level in peritoneal exudate” value ([2]; 4 and 24 h) of the same compound?
**A.** Its value is “more prominent effect”.

**Q.** What about the “IL-10 level in peritoneal exudate” value ([2]; 4 and 24 h) of the same compound?
**A.** The value was “more prominent effect”.

**Q.** What about the “PGE2 level in peritoneal exudate” value ([2]; 4 and 24 h) of the same compound?
**A.** The value was “more prominent effect”.

**Q.** And the “leukocyte numbers in the peritoneal cavity” value ([2]; 4 h (P ≤ 0.005) and 24 h (P ≤ 0.01))?
**A.** The value was “significantly reduced”.

**Q.** For Cc1cc(C(=O)Nc2nnc(-c3ccc(-c4cccc(O)c4)cc3)s2)cc(Cl)n1 [compound 2], which remaining activity at 10 µM [1] is on record?
**A.** Its remaining activity at 10 µM is greater than 50%.

**Q.** With Cc1ccoc1C(=O)Nc1nnc(-c2ccc(-c3ccccc3N)cc2)s1 [compound 5] as the compound, how does the remaining activity at 10 µM [1] read?
**A.** The remaining activity at 10 µM was greater than 25%.
